Ends that are not written are not given here.

One assay concerns the target HLA-B7 (B*0702) (Homo sapiens, UniProt P01889). The assay can be described thus: HLA-B7 (B*0702) peptide binding, competition with radiolabeled SS 5-13a (L7→Y) peptide. Conditions: purified HLA-B7.
For assay [1], the system named is human PBMC CTL; 624mel tumor cell line. The assay can be described thus: Primary in vitro CTL induction from human PBMC with MAGE3.112 or analogs. As to conditions: IFNγ against .221A2.1 cells with or without peptide.

Broadly, the IC50 is the concentration that gives 50% inhibition. High values mean lower potency, low ones higher potency. Consider VPISHLGIL [MAGE2.170G7], for which, on HLA-B7 (B*0702), the IC50 came out at 105 nM.
VPISHLMIL [MAGE2.170M7] displayed a half-inhibitory concentration (IC50) at HLA-B7 (B*0702) of 69 nM.
Turning to `CC[C@H](C)[C@H](NC(=O)[C@H](CCC(=O)O)NC(=O)[C@H](C)NC(=O)[C@@H](NC(=O)[C@@H](N)CCCCN)C(C)C)C(=O)N[C@H](C(=O)N[C@@H](Cc1c[nH]cn1)C(=O)N[C@@H](Cc1ccccc1)C(=O)N[C@@H](CC(C)C)C(=O)O)C(C)C` [MAGE3.112 I5], the “peptide-specific CTL responses in human PBMC cultures stimulated with the peptide” value in assay [1] was “Peptide-specific CTL responses were detected”.
VPISHLHIL [MAGE2.170H7] showed an IC50 on HLA-B7 (B*0702) of 75 nM.
Regarding `CC(C)C[C@H](NC(=O)[C@H](Cc1ccccc1)NC(=O)[C@H](Cc1c[nH]c2ccccc12)NC(=O)[C@@H](NC(=O)[C@H](CC(C)C)NC(=O)[C@H](CCC(=O)O)NC(=O)[C@H](C)NC(=O)[C@@H](NC(=O)[C@@H](N)CCCCN)C(C)C)C(C)C)C(=O)O` [MAGE3.112 W7], in assay [1], the “peptide-specific CTL responses in human PBMC cultures stimulated with the peptide” value is listed as “Peptide-specific CTL responses were detected”.
VPISHLEIL [MAGE2.170E7] yielded an IC50 on HLA-B7 (B*0702) of 186 nM.

The record behind these values is patent US8741576B2, “Heteroclitic analogs and related methods” (Epimunne Inc., priority 1999, dated 2014).
